Data published in patent publication US20100324290A1, “CRYSTALLINE FORM I OF LAMIVUDINE AND ITS PREPARATION” (RANBAXY LABORATORIES LIMITED, priority 2007, published 2010).
Where two headings read alike, the source gives them in different places.

How the values were obtained:
[1] = Storage stability of crystalline Form I (solid form after storage, XRPD); type: physicochemical
From the text: (§1) XRPD of the samples were obtained by using Panalytical X′Pert Pro X-Ray Powder Diffractometer in the range 3-40 degree 2 theta and under tube voltage and current of 45 Kv and 40 mA respectively. Copper radiation of wavelength 1.54 angstrom and Xceletor detector was used. Form II of lamivudine: Not detectable (Limit of detection: 0.5% by XRPD) The stable crystalline Form I of lamivudine obtained from Example 2 was subjected to the following conditions: […]

[2] = Stability of crystalline Form I to milling (solid form after milling, XRPD); type: physicochemical
From the text: as §1, with “In one aspect, a stable crystalline Form I of lamivudine is provided. […] The term milling refers to an act or process of grinding, crushing, pulverizing, powdering, atomizing, pestling, levigating, sifting, sieving, size reducing, or passing through a milling device. […] XRPD of” for “XRPD of”

[3] = during milling and formulation operation; prior-art Form I per WO 2007/119248; cited from earlier work

Row | Resultant Material after storage ([1]; Stored at 25 ± 2° C. at 60 ± 5% RH for 3 months) | Resultant Material after storage ([1]; Stored at 40 ± 2° C. at 75 ± 5% RH for 1 month) | Resultant Material after storage ([1]; Stored at 40 ± 2° C. at 75 ± 5% RH for 2 months) | Resultant Material after storage ([1]; Stored at 40 ± 2° C. at 75 ± 5% RH for 3 months) | Solid-form stability on storage ([1]; stored up to three months at a temperature up to about 45° C. and at a relative humidity of about 25% to about 85%) | Resultant Material after milling ([2]; Milled in a multimill (2 mm mesh size)) | Conversion of solid form on milling ([2]; pharmaceutical operations such as milling) | SMILES | Conversion of solid form on milling [3]
1 | Form I | Form I | Form I | Form I | remains stable | Form I | does not convert to Form II | Nc1ccn([C@@H]2CS[C@H](CO)O2)c(=O)n1 [Form I obtained from Example 2, (2R,cis)-4-amino-1-(2-hydroxymethyl-1,3-oxathiolan-5-yl)-(1H)-pyrimidin-2-one] | –
2 | – | – | – | – | – | – | – | Nc1ccn([C@@H]2CS[C@H](CO)O2)c(=O)n1 [Form I, (2R,cis)-4-amino-1-(2-hydroxymethyl-1,3-oxathiolan-5-yl)-(1H)-pyrimidin-2-one] | converts to Form II
